In patent US20260078135A1, “POLYCYCLIC QUINAZOLINES FOR INHIBITION OF ERBB2” (Enliven Inc., priority 2022, published 2026):

Assays:
Ba/F3 ERBB2 YVMA = Ba/F3 ERBB2 YVMA (Homo sapiens, UniProt P04626, DUP772-775, cells depend on it); test: Cell viability assay (CellTiter Glo), Ba/F3 cells engineered to express ERBB2 YVMA; type: cell-based, mouse; details: Ba/F3 cells expressing human ERBB2 YVMA mutant, 72 hours, read-out: Ba/F3 ERBB2 YVMA, IC50
Outline: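 Ba/F3 cells (IL-3-independent via stable retroviral human ERBB2 YVMA) seeded 3000/well and given compound from about 10 μM to 0.51 nM in three-fold steps, DMSO ≤0.1%, 72 h at 37° C. Viability by CellTiter Glo luminescence, normalized to DMSO and media-only controls. Sigmoidal nonlinear fit.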

[1] = biological target: T1, phosphorylated ERBB2 (pERBB2) (Homo sapiens, UniProt P04626); test: Detection of phosphorylated ERBB2 (pERBB2) by ELISA in BT-474 cells; type: cell-based; details: four hour incubation
T1 construct: endogenous in cells; host or cells: BT-474
Outline: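 BT-474 cells were treated with compounds (fourfold dilutions, 10 μM to 0.01 nM final) for 4 h at 37 °C, then lysed. pERBB2 in lysates was quantified by ELISA with an HRP anti-phosphotyrosine detection antibody and TMB read at 450 nm; % relative activity was normalized to no-cell and 0.1% DMSO controls.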

[2] = biological target: T2, phosphorylated EGFR (pEGFR) (Homo sapiens, UniProt P00533); test: Detection of phosphorylated EGFR (pEGFR) by AlphaLISA in EGF-stimulated A431 cells; type: cell-based; details: A431 cells (10% FBS), 4 hours incubation, EGF 30 ng/mL for 10 minutes
T2 construct: performed to measure phosphorylated EGFR levels using A431 cells (10% FBS); endogenous in cells; host or cells: A431
Outline: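 A431 cells in 10% FBS were preincubated with compound for 4 h at 37 °C, then stimulated with 30 ng/mL EGF for 10 min and lysed. pEGFR read by AlphaLISA. % inhibition normalised to DMSO and staurosporine controls; IC50 from four-parameter curve fit.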

T1 sequence (P04626 23-1255): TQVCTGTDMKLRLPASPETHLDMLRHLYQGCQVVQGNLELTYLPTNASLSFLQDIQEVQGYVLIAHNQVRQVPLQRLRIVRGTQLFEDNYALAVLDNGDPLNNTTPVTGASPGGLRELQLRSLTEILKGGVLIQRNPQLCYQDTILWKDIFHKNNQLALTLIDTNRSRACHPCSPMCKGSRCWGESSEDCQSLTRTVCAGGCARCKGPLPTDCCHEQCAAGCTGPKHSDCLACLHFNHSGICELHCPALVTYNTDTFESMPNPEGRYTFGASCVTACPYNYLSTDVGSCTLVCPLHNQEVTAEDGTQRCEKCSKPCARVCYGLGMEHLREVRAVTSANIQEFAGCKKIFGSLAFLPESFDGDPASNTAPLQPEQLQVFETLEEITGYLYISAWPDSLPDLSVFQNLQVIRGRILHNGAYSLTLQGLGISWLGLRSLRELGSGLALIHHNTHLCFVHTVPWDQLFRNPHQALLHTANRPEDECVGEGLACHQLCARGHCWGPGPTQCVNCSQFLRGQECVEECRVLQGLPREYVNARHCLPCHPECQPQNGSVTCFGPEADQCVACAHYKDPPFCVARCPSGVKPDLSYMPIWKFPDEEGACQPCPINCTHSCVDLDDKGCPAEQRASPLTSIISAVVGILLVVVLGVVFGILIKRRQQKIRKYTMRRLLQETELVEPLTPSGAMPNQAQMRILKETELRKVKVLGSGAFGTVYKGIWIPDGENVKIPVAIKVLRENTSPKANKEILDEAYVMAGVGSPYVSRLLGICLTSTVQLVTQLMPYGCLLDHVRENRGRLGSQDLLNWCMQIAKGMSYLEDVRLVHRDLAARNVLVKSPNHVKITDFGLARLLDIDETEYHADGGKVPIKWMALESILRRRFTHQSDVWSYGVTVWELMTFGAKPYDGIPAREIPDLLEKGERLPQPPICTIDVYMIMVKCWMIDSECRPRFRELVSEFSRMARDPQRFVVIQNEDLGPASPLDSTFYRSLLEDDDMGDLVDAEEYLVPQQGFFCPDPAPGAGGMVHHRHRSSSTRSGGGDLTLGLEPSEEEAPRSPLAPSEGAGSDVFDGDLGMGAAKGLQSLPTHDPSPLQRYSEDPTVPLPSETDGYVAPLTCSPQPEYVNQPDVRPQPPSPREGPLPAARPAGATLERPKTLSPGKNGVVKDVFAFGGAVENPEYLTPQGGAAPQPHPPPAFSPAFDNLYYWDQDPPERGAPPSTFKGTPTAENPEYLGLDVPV
Chain of Ba/F3 ERBB2 YVMA (P04626 with tags, fused parts or gaps DUP772-775): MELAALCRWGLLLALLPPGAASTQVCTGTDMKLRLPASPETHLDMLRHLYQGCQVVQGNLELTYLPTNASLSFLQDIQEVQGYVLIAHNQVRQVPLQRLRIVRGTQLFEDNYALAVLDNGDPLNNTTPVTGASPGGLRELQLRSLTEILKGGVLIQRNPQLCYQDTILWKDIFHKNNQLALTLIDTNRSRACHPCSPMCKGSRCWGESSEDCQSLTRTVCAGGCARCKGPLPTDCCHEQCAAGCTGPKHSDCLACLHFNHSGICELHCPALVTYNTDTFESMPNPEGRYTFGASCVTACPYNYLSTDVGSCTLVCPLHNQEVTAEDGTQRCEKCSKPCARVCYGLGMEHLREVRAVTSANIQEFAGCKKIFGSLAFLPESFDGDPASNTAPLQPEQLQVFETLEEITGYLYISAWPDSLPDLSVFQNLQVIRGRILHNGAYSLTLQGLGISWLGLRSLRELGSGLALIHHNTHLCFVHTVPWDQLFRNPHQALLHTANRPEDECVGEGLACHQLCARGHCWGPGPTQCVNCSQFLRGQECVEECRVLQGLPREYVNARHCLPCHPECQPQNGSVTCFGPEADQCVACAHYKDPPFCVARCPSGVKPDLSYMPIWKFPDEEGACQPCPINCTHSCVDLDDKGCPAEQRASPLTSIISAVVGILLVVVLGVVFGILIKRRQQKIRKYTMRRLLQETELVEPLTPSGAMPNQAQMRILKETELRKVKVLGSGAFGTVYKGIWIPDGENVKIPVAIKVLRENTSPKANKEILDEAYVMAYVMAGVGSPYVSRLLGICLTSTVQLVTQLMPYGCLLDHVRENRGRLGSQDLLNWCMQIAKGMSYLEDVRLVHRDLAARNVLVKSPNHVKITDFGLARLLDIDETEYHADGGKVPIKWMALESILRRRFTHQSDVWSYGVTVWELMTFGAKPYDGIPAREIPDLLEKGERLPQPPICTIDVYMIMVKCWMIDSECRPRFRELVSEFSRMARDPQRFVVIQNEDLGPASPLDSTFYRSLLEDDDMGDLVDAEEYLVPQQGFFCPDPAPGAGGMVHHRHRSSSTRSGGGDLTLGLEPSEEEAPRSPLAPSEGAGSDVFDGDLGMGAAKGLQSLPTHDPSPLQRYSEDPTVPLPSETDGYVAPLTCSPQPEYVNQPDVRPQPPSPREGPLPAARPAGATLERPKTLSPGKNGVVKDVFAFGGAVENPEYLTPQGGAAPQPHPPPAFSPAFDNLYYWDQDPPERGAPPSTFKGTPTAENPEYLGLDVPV
T2 sequence (P00533 25-1210): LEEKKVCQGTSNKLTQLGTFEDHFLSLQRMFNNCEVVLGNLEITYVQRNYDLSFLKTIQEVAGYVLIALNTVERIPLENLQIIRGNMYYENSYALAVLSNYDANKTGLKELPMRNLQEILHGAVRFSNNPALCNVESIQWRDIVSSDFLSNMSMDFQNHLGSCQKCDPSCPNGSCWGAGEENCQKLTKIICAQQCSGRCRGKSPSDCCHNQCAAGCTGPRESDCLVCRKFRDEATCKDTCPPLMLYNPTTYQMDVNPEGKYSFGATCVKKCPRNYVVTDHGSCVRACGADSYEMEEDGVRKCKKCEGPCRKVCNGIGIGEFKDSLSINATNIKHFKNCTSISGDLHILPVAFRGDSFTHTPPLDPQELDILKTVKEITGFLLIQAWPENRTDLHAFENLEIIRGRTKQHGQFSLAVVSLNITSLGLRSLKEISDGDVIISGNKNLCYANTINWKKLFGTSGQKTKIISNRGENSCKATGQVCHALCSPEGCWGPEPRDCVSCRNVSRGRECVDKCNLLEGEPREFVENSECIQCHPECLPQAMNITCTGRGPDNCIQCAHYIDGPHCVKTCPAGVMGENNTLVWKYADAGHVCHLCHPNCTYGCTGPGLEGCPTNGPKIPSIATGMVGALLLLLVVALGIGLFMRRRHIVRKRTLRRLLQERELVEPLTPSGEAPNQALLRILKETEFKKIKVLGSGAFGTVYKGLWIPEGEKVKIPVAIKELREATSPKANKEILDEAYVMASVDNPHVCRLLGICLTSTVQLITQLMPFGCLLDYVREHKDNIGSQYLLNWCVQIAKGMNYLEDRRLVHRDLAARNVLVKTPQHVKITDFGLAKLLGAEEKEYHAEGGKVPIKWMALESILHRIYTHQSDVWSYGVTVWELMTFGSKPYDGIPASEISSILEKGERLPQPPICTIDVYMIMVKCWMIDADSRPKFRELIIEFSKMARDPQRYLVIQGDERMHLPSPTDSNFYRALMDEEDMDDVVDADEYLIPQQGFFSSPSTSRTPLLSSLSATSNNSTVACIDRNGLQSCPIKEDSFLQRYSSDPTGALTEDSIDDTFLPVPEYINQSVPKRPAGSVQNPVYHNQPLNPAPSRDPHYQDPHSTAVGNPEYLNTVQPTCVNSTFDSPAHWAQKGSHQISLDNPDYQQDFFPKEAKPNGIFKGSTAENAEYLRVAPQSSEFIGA

| IC50 [1] | IC50 [2] | Compound | GI50 (Ba/F3 ERBB2 YVMA) |
| --- | --- | --- | --- |
| 26.4 nM | > 10000 nM | Cc1cc(Nc2ncnc3cnc4c(c23)OC[C@H]2COCCN42)ccc1Oc1ccc2c(c1)ncn2C [Compound 122, (R)—N-(3-methyl-4-((1-methyl-1H-benzo[d]imidazol-5-yl)oxy)phenyl)-6a,7,9,10-tetrahydro-6H-[1,4]oxazino[4,3-d]pyrimido[5′,4′:4,5]pyrido[3,2-b][1,4]oxazin-4-amine] | 30.9 nM |
| 58 nM | > 10000 nM | Cc1cc(Nc2ncnc3ccc4c(c23)O[C@H]2CCN(C)C[C@H]2N4)ccc1Oc1ccc2c(c1)ncn2C [Compound 125, (7aR,11aS)-9-methyl-N-(3-methyl-4-((1-methyl-1H-benzo[d]imidazol-5-yl)oxy)phenyl)-7a,8,9,10,11,11a-hexahydro-7H-pyrido[3′,4′:5,6][1,4]oxazino[2,3-f]quinazolin-1-amine] | 164 nM |
| 828 nM | > 10000 nM | Cc1cc(Nc2ncnc3cc4c(nc23)N2CCN(C)C[C@H]2CO4)ccc1Oc1cc2ncn(C)c2cn1 [Compound 127, (S)-3-methyl-N-(3-methyl-4-((3-methyl-3H-imidazo[4,5-c]pyridin-6-yl)oxy)phenyl)-1,2,3,4,4a,5-hexahydropyrazino[1,2-d]pyrimido[4′,5′:5,6]pyrido[3,2-b][1,4]oxazin-11-amine] | > 500 nM |
| 35.3 nM | > 10000 nM | Cc1cc(Nc2ncnc3cnc4c(c23)OC[C@H]2CN(C)CCN42)ccc1Oc1cc2ncn(C)c2cn1 [Compound 128, (R)-8-methyl-N-(3-methyl-4-((3-methyl-3H-imidazo[4,5-c]pyridin-6-yl)oxy)phenyl)-6,6a,7,8,9,10-hexahydropyrazino[1,2-d]pyrimido[5′,4′:4,5]pyrido[3,2-b][1,4]oxazin-4-amine] | 211 nM |
| 65 nM | > 10000 nM | Cc1cc(Nc2ncnc3cnc4c(c23)OC[C@H]2CNCCN42)ccc1Oc1ccc2c(c1)ncn2C [Compound 130, (R)—N-(3-methyl-4-((1-methyl-1H-benzo[d]imidazol-5-yl)oxy)phenyl)-6,6a,7,8,9,10-hexahydropyrazino[1,2-d]pyrimido[5′,4′:4,5]pyrido[3,2-b][1,4]oxazin-4-amine] | 170 nM |
| 32.7 nM | > 10000 nM | Cc1cc(Nc2ncnc3cnc4c(c23)O[C@H]2CCN(C)C[C@H]2N4C)ccc1Oc1ccc2c(c1)ncn2C [Compound 131, (7aR,11aS)-7,9-dimethyl-N-(3-methyl-4-((1-methyl-1H-benzo[d]imidazol-5-yl)oxy)phenyl)-7a,8,9,10,11,11a-hexahydro-7H-pyrido[4,3-b]pyrimido[5′,4′:4,5]pyrido[2,3-e][1,4]oxazin-1-amine] | 87.1 nM |
| 307 nM | > 10000 nM | Cc1cc(Nc2ncnc3cnc4c(c23)O[C@H]2CCNC[C@H]2N4C)ccc1Oc1ccc2c(c1)ncn2C [Compound 132, (7aR,11aS)-7-methyl-N-(3-methyl-4-((1-methyl-1H-benzo[d]imidazol-5-yl)oxy)phenyl)-7a,8,9,10,11,11a-hexahydro-7H-pyrido[4,3-b]pyrimido[5′,4′:4,5]pyrido[2,3-e][1,4]oxazin-1-amine] | > 500 nM |
| 41.9 nM | > 10000 nM | Cc1cc(Nc2ncnc3cnc4c(c23)O[C@@H]2CCN(C)C[C@H]2N4C)ccc1Oc1ccc2c(c1)ncn2C [Compound 133, (7aR,11aR)-7,9-dimethyl-N-(3-methyl-4-((1-methyl-1H-benzo[d]imidazol-5-yl)oxy)phenyl)-7a,8,9,10,11,11a-hexahydro-7H-pyrido[4,3-b]pyrimido[5′,4′:4,5]pyrido[2,3-e][1,4]oxazin-1-amine] | 60.1 nM |
| 113 nM | 727 nM | Cc1cc(Nc2ncnc3ccc4c(c23)O[C@@H]2CCNC[C@@H]2N4C)ccc1Oc1ccc2c(c1)ncn2C [Compound 134, (7aS,11aR)-7-methyl-N-(3-methyl-4-((1-methyl-1H-benzo[d]imidazol-5-yl)oxy)phenyl)-7a,8,9,10,11,11a-hexahydro-7H-pyrido[3′,4′:5,6][1,4]oxazino[2,3-f]quinazolin-1-amine] | > 500 nM |
| 56.1 nM | > 10000 nM | Cc1cc(Nc2ncnc3cnc4c(c23)O[C@@H]2CCNC[C@H]2N4C)ccc1Oc1ccc2c(c1)ncn2C [Compound 135, (7aR,11aR)-7-methyl-N-(3-methyl-4-((1-methyl-1H-benzo[d]imidazol-5-yl)oxy)phenyl)-7a,8,9,10,11,11a-hexahydro-7H-pyrido[4,3-b]pyrimido[5′,4′:4,5]pyrido[2,3-e][1,4]oxazin-1-amine] | 88.9 nM |
